“Also recorded” adds a separate entry of the source. Counter-ions that a name gives are not always drawn. Like-named read-outs stand apart in the source and are kept apart here.
What was measured:
[1] = system: ZIKV MR-766 strain; assay: Viral inhibition assay, post-treatment, old World strain, Vero cells; format: cell-based, Zika virus; conditions: for EC50: old World ZIKV MR-766, Vero cells, post-treatment; for MIC: old World ZIKV MR-766 strain, read-out: MR766 MIC (maximum effective concentration)
[2] = system: A549 cells; assay: XTT cell proliferation in A549 cells; format: cell-based, human; conditions: highest concentration used 50.00 µM, sentence also cites [17]
[3] = system: ZIKV Paraiba/2015; assay: Viral inhibition assay, pre-treatment (prophylactic), Vero cells; format: cell-based, Zika virus; conditions: for EC50: ZIKV Paraiba/2015, Vero cells, pre-treatment 12 h before infection; for MIC: read-out: Pre-treatment MIC (maximum effective concentration)
[4] = system: ZIKV Paraiba/2015; assay: Viral inhibition assay, co-treatment, Vero cells; format: cell-based, Zika virus; conditions: for Co-treatment MIC (maximum effective concentration): Vero cells, ZIKV Paraiba/2015, co-treatment; for inhibitor category based on SI-MTT / inhibitor category based on SI-MTT and SI-XTT / inhibitor category based on SI-XTT: co-treatment, Paraiba/2015, Vero
[5] = system: ZIKV PRVABC59 strain; assay: Viral inhibition assay, post-treatment, new World strain, Vero cells; format: cell-based, Zika virus; conditions: for EC50: new World ZIKV PRVABC59, Vero cells, post-treatment, 48 h; for MIC: read-out: PRVABC59 MIC (maximum effective concentration)
[6] = system: A549 cells; assay: MTT cell viability in A549 cells; format: cell-based, human; conditions: highest concentration used 50.00 µM, sentence also cites [17]
[7] = system: ZIKV Paraiba/2015; assay: Growth kinetics inhibition assay (infectious viral progeny), Vero cells; format: cell-based, Zika virus
[8] = system: ZIKV Paraiba/2015; assay: Viral inhibition assay, post-infection treatment, Vero cells; format: cell-based, Zika virus; conditions: for EC50: ZIKV Paraiba/2015, Vero cells, post-infection treatment, 36 h; for MIC: read-out: Post-treatment MIC (maximum effective concentration)
[9] = system: Vero cells; assay: MTT cell viability assay in Vero cells; format: cell-based, African green monkey; conditions: non-infected Vero cells, 36 h post-treatment
[10] = system: ZIKV Paraiba/2015; assay: Viral inhibition assay, post-treatment, human A549 cells; format: cell-based, Zika virus; conditions: for inhibitor category based on SI-MTT and SI-XTT: Paraiba/2015, A549 cells; for EC50: ZIKV Paraiba/2015, A549 cells, post-treatment, 36 h; for MIC: in Homo sapiens, read-out: A549 cells MIC (maximum effective concentration)
[11] = system: Vero cells; assay: XTT cell proliferation assay in Vero cells; format: cell-based, African green monkey; conditions: non-infected Vero cells, 36 h post-treatment
[12] = system: ZIKV MR-766; conditions: ZIKV MR-766, Vero cells; cited from earlier work
[13] = XTT cell proliferation in A549 cells; format: cell-based, human; conditions: human, highest concentration used 50.00 µM, sentence also cites [17]
[14] = system: ZIKV DAKAR B11514; design: method as in ref 32, 34 = [32]; conditions: ZIKV DAKAR B11514, Vero cells; cited from earlier work
[15] = system: ZIKV KX197192.1 strain; design: method as in ref 32, 34 = [32]; conditions: Huh7 cells; cited from earlier work
[16] = MTT cell viability in A549 cells; format: cell-based, human; conditions: human, highest concentration used 50.00 µM, sentence also cites [17]
[17] = MTT cell viability assay in Vero cells; format: cell-based, African green monkey; conditions: African green monkey, confluent monolayers; non-infected Vero cells, 36 h post-treatment
[18] = system: ZIKV PRVABC59; conditions: ZIKV PRVABC59, Vero cells; cited from earlier work
[19] = XTT cell proliferation assay in Vero cells; format: cell-based, African green monkey; conditions: African green monkey, confluent monolayers; non-infected Vero cells, 36 h post-treatment
[20] = system: ZIKV MR-766; conditions: ZIKV MR-766, Vero cells, pre-treatment conditions; cited from earlier work
[21] = system: ZIKV-MEX-2-81; conditions: ZIKV MEX-2-81, U2OS cells; cited from earlier work
[22] = system: ZIKV MEX_I_7 strain; conditions: ZIKV MEX_I_7, Huh7, HeLa and HAEC cells; cited from earlier work
[23] = system: ZIKV cocktail of MR-766, FSS13025, and MEX-2-81 strains; conditions: JEG-3 and HBME cells; cited from earlier work
[24] = system: ZIKV SL1602 strain; conditions: ZIKV SL1602, Vero cells; cited from earlier work
[25] = system: ZIKV cocktail of MR-766, FSS13025, and MEX-2-81; conditions: JEG-3 cells, ZIKV cocktail of MR-766, FSS13025, MEX-2-81; cited from earlier work
[26] = system: ZIKV FB-GWUH-2016; design: method as in ref 27 = [27]; conditions: ZIKV FB-GWUH-2016, RPE cells; cited from earlier work
[27] = pre-treatment, Paraiba/2015, Vero
[28] = post-treatment, Paraiba/2015, Vero
[29] = Zika virus, new World ZIKV PRVABC59
[30] = 0.1, 1, 10 EC50, all time points (24, 48, 72 h post-treatment), MOI 0.1

Row | Compound | inhibitor category based on SI-MTT and SI-XTT ([1]; ZIKV MR-766, Vero) | inhibitor category based on SI-MTT [3, 27] | inhibitor category based on SI-XTT [3, 27] | Co-treatment MIC (maximum effective concentration) [4] | inhibitor category based on SI-MTT [4] | inhibitor category based on SI-MTT and SI-XTT [4] | inhibitor category based on SI-MTT and SI-XTT ([5]; ZIKV PRVABC59, Vero) | inhibitor category based on SI-MTT and SI-XTT [8, 28] | inhibitor category based on SI-MTT and SI-XTT [10] | EC50 ([1]; Zika virus) | MIC ([1]; Zika virus) | CC50 [13] | MIC ([3]; Zika virus) | EC50 ([3]; Zika virus) | EC50 ([5]; Zika virus) | MIC [5, 29] | CC50 [16] | EC50 [8] | EC50 ([8]; Zika virus, Vero) | MIC ([8]; Zika virus) | further results
1 | 2′,3′,5′-Triacetyl-6-azauridine [Azaribine] | weak | moderate | weakest and weak | > 100.00 µM | Potent | potent | moderate | most potent; also recorded: potent | weak |  |  |  |  |  |  |  |  |  |  |  | EC50 [1]: 2.43 µM; MIC [1]: < 11.10 µM; CC50 [2]: > 50 µM; Pre-treatment MIC (maximum effective concentration) ([3]; Vero cells, ZIKV Paraiba/2015, pre-treatment): > 100.00 µM; EC50 [3]: 47.3 µM; EC50 ([4]; ZIKV Paraiba/2015, Vero cells, co-treatment (virus pre-incubated with compound 1 h), read-out: EC50): 2.59 µM; inhibitor category based on SI-XTT [4]: potent; PRVABC59 MIC (maximum effective concentration) ([5]; new World ZIKV PRVABC59): < 11.10 µM; EC50 [5]: 1.12 µM; CC50 [6]: > 50 µM; effect on production of infectious viral progeny (viral titers) ([7]; 24 h post-treatment and at 10 EC50 at 48 and 72 h post-treatment): significant effect; Post-treatment MIC (maximum effective concentration) ([8]; Vero cells, ZIKV Paraiba/2015, post-treatment): > 100.00 µM; EC50 ([8]; read-out: EC50): 1.62 µM; CC50 [9]: 237 µM; A549 cells MIC (maximum effective concentration) ([10]; A549 cells): < 11.10 µM; EC50 [10]: 0.68 µM; CC50 [11]: > 1350 µM
2 | O=c1cnn([C@@H]2O[C@H](CO)[C@@H](O)[C@H]2O)c(=O)[nH]1 [Azauridine, 6-azauridine] | moderate |  | weakest | < 100.00 µM | weak | weak | moderate | moderate to weak | moderate | 0.76 µM | < 3.7 µM | > 50 µM | > 100 µM | 64.5 µM | 1.46 µM | < 11.1 µM | > 50 µM | 4.29 µM | 3.72 µM | > 100 µM | EC50 [12]: 0.98 µM; EC50 [14]: 1.5 µM; inhibitor category based on SI-MTT and SI-XTT [3, 27]: weak; EC50 [15]: 2.3 µM; effect on production of infectious viral progeny (viral titers) [7, 30]: dose-dependent inhibitory effect; CC50 at 36 h [17]: 156 µM; MIC ([10]; Zika virus): < 1.23 µM; EC50 ([10]; Zika virus): 0.44 µM; EC50 [18]: 0.61 µM; CC50 at 36 h [19]: > 1350 µM
3 | Cc1c(-c2ccc(-c3ccccc3F)cc2)nc2ccc(F)cc2c1C(=O)O [Brequinar, Brequinar sodium salt hydrate] | most potent; also recorded: potent | moderate | weakest and weak | < 33.30 µM |  | moderate | potent | most potent; also recorded: potent | Potent | 0.05 µM | < 0.13 µM | > 50 µM | > 100 µM | 42.5 µM | 0.08 µM | < 0.41 µM | > 50 µM | 1.51 µM | 1.03 µM | > 100 µM | EC50 [12]: 0.08 µM; effect on production of infectious viral progeny (viral titers) [7, 30]: dose-dependent inhibitory effect; effect on production of infectious viral progeny (viral titers) ([7]; 10 EC50, 24 and 48 h post-treatment): Complete inhibition; CC50 at 36 h [17]: 238 µM; EC50 [20]: 0.3 µM; MIC ([10]; Zika virus): < 0.04 µM; EC50 ([10]; Zika virus): 0.02 µM; CC50 at 36 h [19]: > 1350 µM
4 | COc1c(C)c2c(c(O)c1C/C=C(\C)CCC(=O)O)C(=O)OC2 [Mycophenolic acid] | most potent; also recorded: potent | Potent; also recorded: moderate | potent | < 11.10 µM | weak | weak | potent | moderate to weak | weak | 0.15 µM | < 1.23 µM | > 50 µM | > 100 µM | 7.58 µM | 0.22 µM | < 1.23 µM | > 50 µM | 4.26 µM | 4.34 µM | > 100 µM | EC50 [12]: 0.11 µM; EC50 [21]: 0.4 µM; EC50 [22]: < 2 µM; EC50 [23]: 0.1 µM; EC50 [24]: 0.42 µM; effect on production of infectious viral progeny (viral titers) [7, 30]: dose-dependent inhibitory effect; CC50 at 36 h [17]: 275 µM; MIC ([10]; Zika virus): < 11.1 µM; EC50 ([10]; Zika virus): 0.65 µM; EC50 [18]: 0.14 µM; CC50 at 36 h [19]: > 1350 µM
5 | COC1=CC(c2cc3ccccc3[nH]2)=N/C1=C\c1[nH]c(C)cc1C [Obatoclax, Obatoclax mesylate] |  | moderate |  | < 3.70 µM | Potent |  |  | moderate to weak | weak | 0.37 µM | < 1.23 µM | > 50 µM | < 11.1 µM | 2.96 µM | 0.41 µM | < 1.23 µM | > 50 µM | 0.63 µM | 0.58 µM | < 0.01 µM | inhibitor category based on SI-MTT ([1]; ZIKV MR-766, Vero): weak; inhibitor category based on SI-XTT ([1]; ZIKV MR-766, Vero): moderate; inhibitor category based on SI-XTT [4]: potent; inhibitor category based on SI-MTT ([5]; ZIKV PRVABC59, Vero): weak; inhibitor category based on SI-XTT ([5]; ZIKV PRVABC59, Vero): potent; effect on production of infectious viral progeny (viral titers) ([7]; 1 EC50, all the analyzed times, may be caused by toxicity): Complete inhibition; inhibitor category based on SI-MTT [8, 28]: weak; inhibitor category based on SI-XTT [8, 28]: potent; CC50 at 36 h [17]: 17.6 µM; inhibitory activity [25]: did not exhibit inhibitory activity; MIC ([10]; Zika virus): < 1.23 µM; EC50 ([10]; Zika virus): 0.64 µM; EC50 [26]: 0.04 µM; CC50 at 36 h [19]: 60.4 µM

Source: PMC7551609 (Viruses, 2020)
